Measured values taken from patent publication US20230126447A1, “OCULAR DRUG DEPOT FOR COMPLEMENT-MEDIATED DISORDERS” (priority 2020, published 2023).
“Also recorded” adds a separate entry of the source. Read-outs that look alike come from different tables or passages of the source.

Assay: Ocular tissue and plasma pharmacokinetics, 15 mg/kg single and BID oral, Dutch Belted rabbits (Example 3/5)
Type: in vivo
Conditions: for MRTlast / Tlast / MRT inf / half-life: Choroid-RPE; for concentration at 1 h / concentration at 6 h / concentration at 168 h / concentration at 24 h / concentration at 96 h / concentration at 240 h / concentration at 0 h / MRT inf / half-life: Dutch Belted, rabbit
Method: Study design including group designation and dose levels are outlined in Table 4. […] Fifteen Dutch Belted and 5 New Zealand White rabbits were used as un-dosed controls. […] The dose volume was 5 mL/kg/dose for all groups. Safety was assessed with toxicological and ophthalmic examinations including slit lamp biomicroscopy, indirect ophthalmoscopy, rebound tonometry, and ultrasonic corneal pachymetry.
Analyst® software (Version 1.6.2) was used to capture the LC-MS/MS data and integrate the peak areas. Calibration standards and QCs were prepared in a blank solution of 75%:25% acetonitrile:water (v:v), ranging from 10 ng/mL to 10,000 ng/mL. Matrix matched standard and QC samples were prepared by mixing 2 μL of standard or QC sample above with 18 μL of appropriate ocular tissue or plasma. The final calibration standards ranged from 1 ng/mL to 1000 ng/mL. All plasma, retina, choroid-RPE, optic nerve, and vitreous humor samples were analyzed in a single run. Iris-ciliary body samples were analyzed in two runs due to a need for sample dilution. […] Dilution QCs were prepared at 5000 ng/mL where appropriate. Two sets of standards were used to bracket the analytical run at the beginning and end of the run. Three sets of QCs were included the analytical runs. All concentrations in ocular matrices are reported as ng/g based on the assumed density of 1 g/mL.
1, 6, 24, 96, 168, and 240 hours post-dose on Day 15, with the eyes collected at the same time as blood sampling. A single blood sample was taken from Groups 4 and 5 at sacrifice. Plasma, vitreous humor (VH), retina, choroid-retina pigmented epithelium (Choroid-RPE), optic nerve (ON), and iris-ciliary body (I-CB) were analyzed by LC-MS/MS to quantify test article concentrations. The lower limit of quantitation (LLOQ) in plasma and vitreous humor was 1.0 ng/mL. The LLOQ was 6.0 ng/g in retina, Choroid-RPE, and I-CB and the optic nerve LLOQ was 15 ng/g, assuming tissue density of 1 g/mL where relevant.
Study design including group designation and dose levels are outlined in Table 18.

[1] = DB rabbit, 15 mg/kg BID, Day 15
[2] = DB rabbit, 15 mg/kg single dose, Day 1
[3] = DB rabbit, 15 mg/kg BID oral, Day 15, 24 h
[4] = DB rabbit, 15 mg/kg BID oral, Day 15, 96 h
[5] = DB rabbit, 15 mg/kg BID oral, Day 15, 168 h
[6] = DB rabbit, 15 mg/kg BID oral, Day 15, 240 h
[7] = DB rabbit, 15 mg/kg single oral dose, Day 1, 0 h
[8] = DB rabbit, 15 mg/kg single oral dose, Day 1, 0 h, 15 mg/kg
[9] = DB rabbit, 15 mg/kg single oral dose, Day 1, 24 h
[10] = DB rabbit, 15 mg/kg single oral dose, Day 1, 96 h
[11] = DB rabbit, 15 mg/kg single oral dose, Day 1, 96 h, 15 mg/kg
[12] = DB rabbit, 15 mg/kg single oral dose, Day 1, 168 h
[13] = DB rabbit, 15 mg/kg single oral dose, Day 1, 240 h
[14] = DB rabbits, Day 1, 15 mg/kg single dose, 0 hr
[15] = choroid-RPE, po, 15 mg/kg, DB rabbit, 15 mg/kg BID, Day 15
[16] = choroid-RPE, po, 15 mg/kg, DB rabbit, 15 mg/kg single dose, Day 1

CC(=O)c1nn(CC(=O)N2C[C@H](F)C[C@H]2C(=O)Nc2cccc(Br)n2)c2ccc(-c3cnc(C)nc3)cc12 [Compound 1, (2S,4R)-1-(2-(3-Acetyl-5-(2-methylpyrimidin-5-yl)-1H-indazol-1-yl)acetyl)-N-(6-bromopyridin-2-yl)-4-fluoropyrrolidine-2-carboxamide]
MRTlast [1]: 68.5 h | Tlast [1]: 240 h | MRTlast [2]: 49.7 h | Tlast [2]: 240 h | Vitreous humor concentration after 24 hours post-dose (non-detectable) (DB rabbit, 15 mg/kg BID for 14 days): < 1.0 ng/mL | Mean Aqueous Humor concentration (DB rabbit, 15 mg/kg BID oral, Day 15, 0 h): BLQ^a | Mean Aqueous Humor concentration (DB rabbit, 15 mg/kg BID oral, Day 15, 6 h): BLQ^a | Mean Aqueous Humor concentration [3]: BLQ^a | Mean Vitreous Humor concentration [3]: BLQ^a | Mean plasma concentration (DB rabbit, 15 mg/kg BID oral, Day 15, 24 h, 15 mg/kg): 5.6 ng/mL | Mean Aqueous Humor concentration [4]: BLQ^a | Mean Vitreous Humor concentration [4]: BLQ^a | Mean Aqueous Humor concentration [5]: BLQ^a | Mean Vitreous Humor concentration [5]: BLQ^a | Mean plasma concentration [5]: BLQ^a | Mean Aqueous Humor concentration [6]: BLQ^a | Mean Vitreous Humor concentration [6]: BLQ^a | Mean plasma concentration [6]: BLQ^a | Mean Aqueous Humor concentration [7]: BLQ^a | Mean Vitreous Humor concentration [7]: BLQ^a | Mean plasma concentration [7]: BLQ^a | Mean Choroid-RPE concentration [8]: BLQ^a and BLQ | Mean Iris-Ciliary Body concentration [8]: BLQ^a and BLQ | Mean retina concentration [8]: BLQa and BLQ^a and BLQ | Mean retina concentration (DB rabbit, 15 mg/kg single oral dose, Day 1, 6 h, 15 mg/kg): 30 ng/g | Mean Aqueous Humor concentration [9]: BLQ^a | Mean Vitreous Humor concentration [9]: BLQ^a | Mean retina concentration (DB rabbit, 15 mg/kg single oral dose, Day 1, 24 h, 15 mg/kg): 25 ng/g | Mean Aqueous Humor concentration [10]: BLQ^a | Mean Vitreous Humor concentration [10]: BLQ^a | Mean plasma concentration [11]: no drug was detectable; also recorded: BLQ^a | Mean retina concentration [11]: BLQ^a and BLQ | Mean Vitreous Humor concentration [12]: BLQ^a | Mean plasma concentration [12]: BLQ^a | Mean retina concentration (DB rabbit, 15 mg/kg single oral dose, Day 1, 168 h, 15 mg/kg): BLQ^a and BLQ | Mean Aqueous Humor concentration [13]: BLQ^a | Mean Vitreous Humor concentration [13]: BLQ^a | Mean plasma concentration [13]: BLQ^a | Mean retina concentration (DB rabbit, 15 mg/kg single oral dose, Day 1, 240 h, 15 mg/kg): BLQ^a and BLQ | Accumulation of the drug in Choroid-RPE after repeat dosing (DB rabbit, Day 1 to Day 15): ~6 fold | Mean Choroid-RPE concentration [14]: BLQ | Mean retina concentration [14]: BLQ | Mean retina concentration (DB rabbits, Day 1, 15 mg/kg single dose, 96 hr): BLQ | Mean retina concentration (DB rabbits, Day 1, 15 mg/kg single dose, 168 hr): BLQ | Mean retina concentration (DB rabbits, Day 1, 15 mg/kg single dose, 240 hr): BLQ | concentration at 1 h (aqueous humor, po, 15 mg/kg, DB rabbit, 15 mg/kg BID oral, Day 15, 1 h, read-out: Mean Aqueous Humor concentration): 10.6 ng/mL | concentration at 1 h (aqueous humor, po, 15 mg/kg, DB rabbit, 15 mg/kg single oral dose, Day 1, 1 h, read-out: Mean Aqueous Humor concentration): 3.8 ng/mL | concentration at 6 h (aqueous humor, po, 15 mg/kg, DB rabbit, 15 mg/kg single oral dose, Day 1, 6 h, read-out: Mean Aqueous Humor concentration): 45.3 ng/mL | concentration at 168 h (aqueous humor, po, 15 mg/kg, DB rabbit, 15 mg/kg single oral dose, Day 1, 168 h, read-out: Mean Aqueous Humor concentration): 11.1 ng/mL | concentration at 1 h (choroid-RPE, oral, 15 mg/kg, DB rabbits, Day 1, 15 mg/kg single dose, 1 hr, read-out: Mean Choroid-RPE Concentration): 917 ng/g | concentration at 6 h (choroid-RPE, oral, 15 mg/kg, DB rabbits, Day 1, 15 mg/kg single dose, 6 hr, read-out: Mean Choroid-RPE Concentration): 866 ng/g | concentration at 24 h (choroid-RPE, oral, 15 mg/kg, DB rabbits, Day 1, 15 mg/kg single dose, 24 hr, read-out: Mean Choroid-RPE Concentration): 311 ng/g | concentration at 96 h (choroid-RPE, oral, 15 mg/kg, DB rabbits, Day 1, 15 mg/kg single dose, 96 hr, read-out: Mean Choroid-RPE Concentration): 77.5 ng/g | concentration at 168 h (choroid-RPE, oral, 15 mg/kg, DB rabbits, Day 1, 15 mg/kg single dose, 168 hr, read-out: Mean Choroid-RPE Concentration): 56.3 ng/g | concentration at 240 h (choroid-RPE, oral, 15 mg/kg, DB rabbits, Day 1, 15 mg/kg single dose, 240 hr, read-out: Mean Choroid-RPE Concentration): 28.1 ng/g | concentration at 0 h (choroid-RPE, oral, 15 mg/kg, DB rabbits, Day 15, 15 mg/kg BID, 0 hr, read-out: Mean Choroid-RPE Concentration): 2460 ng/g | concentration at 1 h (choroid-RPE, oral, 15 mg/kg, DB rabbits, Day 15, 15 mg/kg BID, 1 hr, read-out: Mean Choroid-RPE Concentration): 4870 ng/g | concentration at 6 h (choroid-RPE, oral, 15 mg/kg, DB rabbits, Day 15, 15 mg/kg BID, 6 hr, read-out: Mean Choroid-RPE Concentration): 3200 ng/g | concentration at 24 h (choroid-RPE, oral, 15 mg/kg, DB rabbits, Day 15, 15 mg/kg BID, 24 hr, read-out: Mean Choroid-RPE Concentration): 1960 ng/g | concentration at 96 h (choroid-RPE, oral, 15 mg/kg, DB rabbits, Day 15, 15 mg/kg BID, 96 hr, read-out: Mean Choroid-RPE Concentration): 866 ng/g | concentration at 168 h (choroid-RPE, oral, 15 mg/kg, DB rabbits, Day 15, 15 mg/kg BID, 168 hr, read-out: Mean Choroid-RPE Concentration): 485 ng/g | concentration at 240 h (choroid-RPE, oral, 15 mg/kg, DB rabbits, Day 15, 15 mg/kg BID, 240 hr, read-out: Mean Choroid-RPE Concentration): 340 ng/g | MRT inf [15]: 125 h | half-life [15]: 107 h | MRT inf [16]: 81.8 h | half-life [16]: 98.4 h | concentration at 0 h (choroid-RPE, po, 15 mg/kg, DB rabbit, 15 mg/kg BID oral, Day 15, 0 h, read-out: Mean Choroid-RPE concentration): 2460 ng/g | concentration at 1 h (choroid-RPE, po, 15 mg/kg, DB rabbit, 15 mg/kg BID oral, Day 15, 1 h, read-out: Mean Choroid-RPE concentration): 4870 ng/g | concentration at 6 h (choroid-RPE, po, 15 mg/kg, DB rabbit, 15 mg/kg BID oral, Day 15, 6 h, read-out: Mean Choroid-RPE concentration): 3200 ng/g | concentration at 24 h (choroid-RPE, po, 15 mg/kg, DB rabbit, 15 mg/kg BID oral, Day 15, 24 h, read-out: Mean Choroid-RPE concentration): 1960 ng/g | concentration at 96 h (choroid-RPE, po, 15 mg/kg, DB rabbit, 15 mg/kg BID oral, Day 15, 96 h, read-out: Mean Choroid-RPE concentration): 866 ng/g | concentration at 168 h (choroid-RPE, po, 15 mg/kg, DB rabbit, 15 mg/kg BID oral, Day 15, 168 h, read-out: Mean Choroid-RPE concentration): 485 ng/g | concentration at 240 h (choroid-RPE, po, 15 mg/kg, DB rabbit, 15 mg/kg BID oral, Day 15, 240 h, read-out: Mean Choroid-RPE concentration): 340 ng/g | concentration at 1 h (choroid-RPE, po, 15 mg/kg, DB rabbit, 15 mg/kg single oral dose, Day 1, 1 h, read-out: Mean Choroid-RPE concentration): 917 ng/g | concentration at 6 h (choroid-RPE, po, 15 mg/kg, DB rabbit, 15 mg/kg single oral dose, Day 1, 6 h, read-out: Mean Choroid-RPE concentration): 866 ng/g | concentration at 24 h (choroid-RPE, po, 15 mg/kg, DB rabbit, 15 mg/kg single oral dose, Day 1, 24 h, read-out: Mean Choroid-RPE concentration): 311 ng/g | concentration at 96 h (choroid-RPE, po, 15 mg/kg, DB rabbit, 15 mg/kg single oral dose, Day 1, 96 h, read-out: Mean Choroid-RPE concentration): 77.5 ng/g | concentration at 168 h (choroid-RPE, po, 15 mg/kg, DB rabbit, 15 mg/kg single oral dose, Day 1, 168 h, read-out: Mean Choroid-RPE concentration): 56.3 ng/g | concentration at 240 h (choroid-RPE, po, 15 mg/kg, DB rabbit, 15 mg/kg single oral dose, Day 1, 240 h, read-out: Mean Choroid-RPE concentration): 28.1 ng/g
